# According to article PMC8653689, “Phenanthrotriazine Derivatives Containing Arylidine Hydrazone Moieties as Novel Potential c-Met Inhibitors with Anticancer Effect” (Iranian Journal of Pharmaceutical Research : IJPR, 2021):
# Experiments:
# A498 renal cancer cells = tested on: A498 renal cancer cells; set-up: method as in PMID 30721822, PMID 28431881; conditions: at 10 μM; ref [4], [30]; cited from earlier work
# [1] = tested on: MDA-MB-231 breast cancer cells; set-up: method as in PMID 25470024; conditions: ref [32], [33]; read-out: Antiproliferative activity against MDA-MB-231 breast cancer cells IC50; cited from earlier work
# [2] = tested on: MGC-803 gastric cancer cells; set-up: method as in PMID 28763643, PMID 24393539; conditions: ref [13], [31]; read-out: Antiproliferative activity against MGC-803 gastric cancer cells IC50; cited from earlier work
# [3] = tested on: MDA-MB435s melanoma cells; set-up: method as in PMID 25470024; conditions: ref [32], [33]; read-out: Cytotoxic effect against MDA-MB435s melanoma cells IC50; cited from earlier work
# [4] = Solubility in aqueous media; assay type: physicochemical
# [5] = tested on: DU145 prostate cancer cells; set-up: method as in PMID 28431881; conditions: ref [30]; read-out: Antiproliferative activity against DU145 prostate cancer cells IC50; cited from earlier work
# MCF7 breast cancer cells = tested on: MCF7 breast cancer cells; set-up: method as in PMID 28763643, PMID 24393539; conditions: ref [13], [31]; read-out: Cytotoxic effect against MCF7 breast cancer cells IC50; cited from earlier work
# [6] = tested on: HT-29 (human colorectal adenocarcinoma) cells; assay: MTT reduction assay, antiproliferative effect, HT-29; assay type: cell-based; conditions: Homo sapiens, HT-29, 72 h, read-out: HT-29 IC50
# Text: (§1) Fetal bovine serum (FBS), phosphate-buffered saline (PBS), RPMI-1640, and trypsin were obtained from Biosera (Ringmer, UK). Penicillin/streptomycin and MTT (3-(4,5-dimethylthiazol-2-yl)-2,5-diphenyltetrazolium bromide) were from Sigma-Aldrich (Saint Louis, MO, USA) and Invitrogen (San Diego, CA, USA), respectively. Dimethyl sulfoxide and doxorubicin were purchased from Merck (Darmstadt, Germany) and EBEWE Pharma (Unterach, Austria), respectively. The cells were acquired from Iranian Biological Resource Center, Tehran, Iran (HT-29 (human colorectal adenocarcinoma), MCF-7 (human breast adenocarcinoma) and Vero (African green monkey kidney) cells) or National Cell Bank of Iran, Pasteur Institute, Tehran, Iran (MOLT-4 (lymphoblastic leukemia) cells).
# (§2) MTT reduction assay was employed to assess the viability of cancer cells after being treated with synthesized derivatives as previously described ([34]). The cells were plated in flat-bottom 96-well microplates, at densities of 3 × 10^4 cells/mL (100 μL in each well) and then incubated overnight at 37 °C. Three to four different concentrations of synthesized derivatives (in the range of 1 to 100 μM) were placed in triplicate wells and the plates were incubated for 72 h at 37 °C. […] At the end of the incubation time, 80 μL of the media in each well was replaced with the same amount of growth medium without phenol red containing 0.5 mg/mL of MTT. Cells were further incubated at 37 °C for 4 h and then 80 μL of the solution of each well was removed. The addition of DMSO (200μL) to each well solubilized the formazan crystals formed inside the viable cells after 1-hour incubation followed by 30-minute shaking. The optical absorbance of the final solution was determined at 570 nm using a Bio-Tek multimode plate reader (Synergy HTX). The cell viability was calculated compared to untreated control cells by comparison of absorbance measurements. CurveExpert software (version 1.34 for Windows) was used to determine the IC50 value for each compound. To confirm the results, every experiment was repeated 3 to 5 times.
# [7] = tested on: MCF-7 (human breast adenocarcinoma) cells; assay: MTT reduction assay, antiproliferative effect, MCF-7; assay type: cell-based; conditions: Homo sapiens, MCF7, 72 h, read-out: MCF-7 IC50, MTT, 72 h incubation
# Text: as §1, §2
# [8] = tested on: MOLT-4 (lymphoblastic leukemia) cells; assay: MTT reduction assay, antiproliferative effect, MOLT-4; assay type: cell-based, human; conditions: Homo sapiens, MOLT-4, 72 h, read-out: MOLT-4 IC50
# Text: as §1, §2
# [9] = tested on: Vero (African green monkey kidney) cells; assay: MTT reduction assay, Vero normal cells; assay type: cell-based; conditions: Chlorocebus sabaeus, Vero, 72 h, read-out: Vero IC50
# Text: as §1, §2
# MCF-7 cells [10] = assay: Cell cycle analysis, propidium iodide/RNase flow cytometric assay; assay type: cell-based, human; conditions: 48 h
# Method: Alterations of the cell cycle were determined by the propidium iodide (PI)-RNase flow cytometric method ([35]). MCF-7 cells were used to determine the percentage of cells in each phase of the cell cycle. In 6-well plates, 2 × 10^5 cells were seeded in each well and incubated at 37 °C for 48 h. Afterward, they were treated for 48 h with derivatives 9g, 9j, 9k and 9l at 10 and 25 μM. The cells were then collected after trypsinization, washed twice with PBS, and fixed by 5 mL ethanol 70% for at least 24 h at -20 °C. After fixation, MCF-7 cells were washed with PBS two times and stained with PI 20 µg/mL and RNase 200 µg/mL for 30 min in the dark at room temperature. A FACS Calibur ﬂow cytometer (BD Biosciences) was used for the assays and 20,000 events were analyzed. The number of cells distributed in sub-G1, G0/G1, S, and G2/M were determined by CellQuest software (BD, USA).
# Figure 2 Representative cell cycle histograms of MCF-7 cells treated with synthesized derivatives. Analysis of the percentage of cells in different phases of cell cycle was performed using propidium iodide (PI)-RNase flow cytometric assay. MCF-7 cells were seeded in 6-well microplates and treated with synthesized derivatives for 48 h. The cells were then collected and fixed in 70% ethanol overnight at -20 °C. In the end, the cells were stained with DNA staining solution (PI 20 µg/mL and RNase 200 µg/mL) for 30 min and 20,000 events were analyzed by a FACS Calibur ﬂow cytometer (BD Biosciences). Representative histograms of cells treated with compounds 9g, 9j, 9k and 9l are shown
# MCF-7 cells [11] = assay: Hoechst 33258 staining, detection of apoptosis; assay type: cell-based, human; conditions: MCF-7, 72 h treatment, especially at 25 µM
# Method: Hoechst 33258 was used as a DNA stain to detect apoptosis in cells. MCF-7 cells were seeded in a 6-well plate at a density of 5 × 10^4 cells/mL (2 mL per well) and incubated for 24 h. The whole medium was removed and different concentrations of test compounds 9g, 9j, 9k, and 9l diluted in 2 mL medium were placed in the different wells and incubated for 72 h. Afterward, the medium was removed again, 1 mL of 4% cold freshly prepared paraformaldehyde (PFA) was added, and cells were incubated for 20 min at room temperature. The cells were then washed 2 times with 1 ml PBS and incubated with 1 mL Hoechst 33258 2.5 µg/mL for 30 min in the dark at room temperature ([36], [37]). In the end, the cells were washed with 1 mL PBS and imaged with a fluorescence microscope.
# Figure 3 Detection of apoptosis in MCF-7 cells by Hoechst staining. Hoechst 33258 was used as a DNA stain to detect apoptosis in MCF-7 cells treated with synthesized compounds. The cells were seeded in a 6-well plates and treated with different concentrations of test compounds 9g, 9j, 9k and 9l for 72 h. After removing the whole medium, 4% cold freshly prepared paraformaldehyde (PFA) was added for 20 min at room temperature, the cells were then washed twice with PBS, and incubated with Hoechst 33258 2.5 µg/mL for 30 min at room temperature in the dark. Finally, the cells were washed with PBS again and the plates were imaged with a fluorescence microscope
smiles,measurement,setting,value
O=C1NC(=O)/C(=C/c2ccc(-c3nc4c5ccccc5c5ccccc5c4[nH]3)cc2)S1 [Compound 2],Growth inhibition in A498 renal cancer cells,A498 renal cancer cells,93%
Cc1csc(N/N=C/c2ccccc2)n1 [Compound 6],IC50,[1],3.9 µM
Sc1nnc2c3ccccc3c3ccccc3c2n1 [Compound 3],melting point,,122 to 124 °C
same,IC50,[2],7.6 µM
CSc1nnc2c3ccccc3c3ccccc3c2n1 [Compound 5],IC50,[3],120 µM
"Oc1ccccc1C=NNc1nnc2c3ccccc3c3ccccc3c2n1 [Compound 9d, 2-((2-(phenanthro[9,10-e][1,2,4]triazin-3-yl)hydrazono)methyl)phenol]",Solubility in aqueous media,[4],very low solubility in aqueous media
same,melting point,,328 to 332 °C
O=C1C(=O)c2ccccc2-c2ccccc21 [Compound 1],IC50,[5],1.5 µM
"COc1ccc(C=NNc2nnc3c4ccccc4c4ccccc4c3n2)cc1 [Compound 9c, 3-(2-(4-methoxybenzylidene)hydrazinyl)phenanthro[9,10-e][1,2,4]triazine]",Solubility in aqueous media,[4],very low solubility in aqueous media
same,melting point,,288 to 292 °C
O=[N+]([O-])c1cccc(/C=N/Nc2nnc3c(n2)-c2cccc4cccc-3c24)c1 [Compound 4],IC50,MCF7 breast cancer cells,61.9 µM
"O=[N+]([O-])c1ccccc1C=NNc1nnc2c3ccccc3c3ccccc3c2n1 [Compound 9g, 3-(2-(2-nitrobenzylidene)hydrazinyl)phenanthro[9,10-e][1,2,4]triazine]",IC50,[6],16.7 ± 2.2 µM
same,IC50,[7],6.2 ± 1.3 µM
same,IC50,[8],5.4 ± 1 µM
same,IC50,[9],11.1 ± 1 µM
same,Percentage of cells in G0/G1,"MCF-7 cells [10]; MCF-7, 10 µM",69.25 ± 2.1
same,Percentage of cells in G2/M,"MCF-7 cells [10]; MCF-7, 10 µM",18.58 ± 2.2
same,Percentage of cells in S,"MCF-7 cells [10]; MCF-7, 10 µM",8.79 ± 1.3
same,Percentage of cells in Sub G1,"MCF-7 cells [10]; MCF-7, 10 µM",1.35 ± 0.3
same,Effect on cells in sub-G1 phase,"MCF-7 cells [10]; MCF-7, 25 µM",increased the cells in the sub-G1 phase
same,Percentage of cells in G0/G1,"MCF-7 cells [10]; MCF-7, 25 µM",74.76 ± 4.9
same,Percentage of cells in G2/M,"MCF-7 cells [10]; MCF-7, 25 µM",13.97 ± 3.3
same,Percentage of cells in S,"MCF-7 cells [10]; MCF-7, 25 µM",7.58 ± 1.9
same,Percentage of cells in Sub G1,"MCF-7 cells [10]; MCF-7, 25 µM",1.82 ± 0.3
same,Effect on number of cells in G0/G1,"MCF-7 cells [10]; MCF-7, 10 and 25 µM",significantly enhanced the number of cells in the G0/G1
same,Apoptosis induction by Hoechst 33258 staining,MCF-7 cells [11],showed signs of apoptosis
same,melting point,,225 to 229 °C
